The results in this text go back to patent US8546381B2, “Bridged heterocyclic compounds and methods of use” (Medivation Technologies, Inc., priority 2008, dated 2013).

The target of the first experiment is T1, human recombinant adrenergic α2A receptor (Homo sapiens, UniProt P08913).
T1 construct: expressed in transfected cells; host or cells: insect Sf9 cells
T1 sequence (P08913 1-465): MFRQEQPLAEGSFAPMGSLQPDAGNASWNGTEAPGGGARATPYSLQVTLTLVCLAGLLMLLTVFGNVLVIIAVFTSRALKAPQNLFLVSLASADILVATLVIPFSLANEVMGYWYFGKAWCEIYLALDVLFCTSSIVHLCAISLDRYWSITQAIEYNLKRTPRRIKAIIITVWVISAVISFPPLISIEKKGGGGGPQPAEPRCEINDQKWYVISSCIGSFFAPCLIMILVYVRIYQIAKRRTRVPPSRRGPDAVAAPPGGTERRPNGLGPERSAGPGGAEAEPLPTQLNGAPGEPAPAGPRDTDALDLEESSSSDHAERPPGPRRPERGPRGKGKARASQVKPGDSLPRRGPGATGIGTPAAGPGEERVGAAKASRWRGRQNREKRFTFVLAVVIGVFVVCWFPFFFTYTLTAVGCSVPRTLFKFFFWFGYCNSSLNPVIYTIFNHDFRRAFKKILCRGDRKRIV
Kind of experiment: Adrenergic α2A radioligand binding ([3H]MK-912). The settings on record: 1 μM. Here is the method:
To evaluate in radioligand binding assays the activity of compounds of the invention, human recombinant adrenergic α2A receptor expressed in insect Sf9 cells (Uhlen S et al. J Pharmacol Exp Ther. 271:1558, 1994) in a modified Tris-HCl buffer (50 mM Tris-HCl, pH 7.4, 12.5 mM MgCl2, 2 mM EDTA) was used. Compounds of invention were incubated with 1 nM [^3H]MK-912 for 60 minutes at 25° C. MK912 is (2S-trans)-1,3,4,5′,6,6′,7,12b-octahydro-1′,3′-dimethyl-spiro[2H-benzofuro[2,3-a]quinolizine-2,4′(1′H) -pyrimidin]-2′(3′H)-one hydrochloride Non-specific binding was estimated in the presence of 10 μM WB-4101 (2-(2,6-Dimethoxyphenoxyethyl)aminomethyl-1,4-benzodioxane hydrochloride). Receptor proteins were filtered and washed, the filters were then counted to determine [^3H]MK-912 specifically bound. Compounds were screened at 1 μM or lower, using 1% DMSO as vehicle. Biochemical assay results are presented as the percent inhibition of specific binding in Table 3.
With `CN1C2CCC1c1c(n(CCc3ccc(C(F)(F)F)nc3)c3ccc(Cl)cc13)C2` (stereo not drawn) [Compound 34], the “Adrenergic α2A, inhibition of ligand binding (1 μM)” value stood at 39.0%.
Take `Cc1ccc2c(c1)c1c(n2CCc2ccc(C(F)(F)F)nc2)CC2CCC1N2C` (stereo not drawn) [Compound 71]: the “Adrenergic α2A, inhibition of ligand binding (1 μM)” value is on record as 48.0%.

The experiment is the same for the next values; noted with them: 1 μM; read-out: Adrenergic α2A, inhibition of ligand binding (1 μM).
Take `CN1C2CCC1c1c(n(CCC(=O)N3CCNC(=O)C3)c3ccc(Cl)cc13)C2` (stereo not drawn) [Compound 3]: the inhibition (usually the relative decrease from the control value, in per cent) at 1 µM is 8%.
For `CC(=O)N1CCN(C(=O)CCn2c3c(c4cc(Cl)ccc42)C2CCC(C3)N2C)CC1` (stereo not drawn) [Compound 8], the inhibition at 1 µM is -2%.
Regarding `CN1C2CCC1c1c(n(CCC(=O)N3CCNCC3)c3ccc(Cl)cc13)C2` (stereo not drawn) [Compound 9], the inhibition at 1 µM was 9%.
Turning to `CN1C2CCC1c1c(n(CCC(=O)N3CC[S+]([O-])CC3)c3ccc(Cl)cc13)C2` (stereo not drawn) [Compound 10], the inhibition at 1 µM is -7%.
Consider `CN1C2CCC1c1c(n(CCC(=O)N3CCS(=O)(=O)CC3)c3ccc(Cl)cc13)C2` (stereo not drawn) [Compound 11], for which the inhibition at 1 µM was -10%.
For the compound `CN1C2CCC1c1c(n(CCC(=O)N3CCSCC3)c3ccc(Cl)cc13)C2` (stereo not drawn) [Compound 12], the inhibition at 1 µM came to 0%.
Take `Cc1ccc2c(c1)c1c(n2CCc2ccc(C)nc2)CC2CCC1N2C` (stereo not drawn) [Compound 32]: the inhibition at 1 µM was found to be 17%.
On to `CN1C2CCC1c1c(n(CCc3ccc(C(F)(F)F)nc3)c3ccc(Cl)cc13)C2` (stereo not drawn) [Compound 34], for which the inhibition at 1 µM came to 42%.
Turning to `CN1C2CCC1c1c(n(CCCc3ccc(C(F)(F)F)nc3)c3ccc(Cl)cc13)C2` (stereo not drawn) [Compound 37], the inhibition at 1 µM is 10%.
The same measure, in the same setting: the value for `Cc1ccc(CCCn2c3c(c4cc(Cl)ccc42)C2CCC(C3)N2C)cn1` (stereo not drawn) [Compound 38] was 33%; that for `CN1C2CCC1c1c(n(CCCc3ccc(Cl)cc3)c3ccc(Cl)cc13)C2` (stereo not drawn) [Compound 39] was 68%; that for `Cc1ccc(C(O)Cn2c3c(c4cc(Cl)ccc42)C2CCC(C3)N2C)cn1` (stereo not drawn) [Compound 52] was 46%.
`Cc1ccc2c(c1)c1c(n2CC(C)(O)c2ccc(Cl)cc2)CC2CCC1N2C` (stereo not drawn) [Compound 54]: the inhibition at 1 µM was 75%.
As for `CCOC(=O)CCn1c2c(c3cc(Cl)ccc31)C1CCC(C2)N1C` (stereo not drawn) [Compound 70, ethyl 3-(2-chloro-11-methyl-5,6,7,8,9,10-hexahydro-7,10-iminocyclohept[b]indol-5-yl)propanoate], the inhibition at 1 µM is 3%.
Regarding `Cc1ccc2c(c1)c1c(n2CCc2ccc(C(F)(F)F)nc2)CC2CCC1N2C` (stereo not drawn) [Compound 71], the inhibition at 1 µM was found to be 28%.
On to `CN1C2CCC1c1c(n(CCC(=O)O)c3ccc(Cl)cc13)C2` (stereo not drawn) [Compound 72], for which the inhibition at 1 µM worked out at 6%.
Still for that read-out and setting: the value for `CN1C2CCC1c1c(n(CCC(N)=O)c3ccc(Cl)cc13)C2` (stereo not drawn) [Compound 73] was 6%; that for `CN1C2CCC1c1c(n(CCc3ccc(C(F)(F)F)nc3)c3cc(F)c(Cl)cc13)C2` (stereo not drawn) [Compound 77] was 30%; that for `Cc1ccc(CCn2c3c(c4cc(Cl)ccc42)C2CCC(C3)N2C)cn1` (stereo not drawn) [Compound 79] was 14%.
The same measure, in the same setting: the value for `CN1C2CCC1c1c(n(CCc3cccnc3)c3ccc(Cl)cc13)C2` (stereo not drawn) [Compound 80] was 21%; that for `Cc1ccc2c(c1)c1c(n2CCc2cnc(C)nc2)CC2CCC1N2C` (stereo not drawn) [Compound 81] was -5%.
As for `Cc1ncc(CCn2c3c(c4cc(Cl)ccc42)C2CCC(C3)N2C)cn1` (stereo not drawn) [Compound 82], the inhibition at 1 µM was 5%.
Turning to `COc1ccc(CCn2c3c(c4cc(C)ccc42)C2CCC(C3)N2C)cc1` (stereo not drawn) [Compound 83], the inhibition at 1 µM was determined as 77%.
As for `COc1ccc(CCn2c3c(c4cc(Cl)ccc42)C2CCC(C3)N2C)cc1` (stereo not drawn) [Compound 84], the inhibition at 1 µM was found to be 76%.
Regarding `Cc1ccc2c(c1)c1c(n2CCCc2ccc(Cl)cc2)CC2CCC1N2C` (stereo not drawn) [Compound 85], the inhibition at 1 µM worked out at 73%.
As to `Cc1ccc2c(c1)c1c(n2CCc2cccnc2)CC2CCC1N2C` (stereo not drawn) [Compound 86], the inhibition at 1 µM came out at 63%.
`CN1C2CCC1c1c(n(CCc3cncc(Cl)c3)c3ccc(Cl)cc13)C2` (stereo not drawn) [Compound 87]: the inhibition at 1 µM is 21%.
Consider `Cc1ccc2c(c1)c1c(n2CCc2cncc(Cl)c2)CC2CCC1N2C` (stereo not drawn) [Compound 88], for which the inhibition at 1 µM was found to be 32%.
Consider `Cc1cncc(CCn2c3c(c4cc(Cl)ccc42)C2CCC(C3)N2C)c1` (stereo not drawn) [Compound 89], for which the inhibition at 1 µM stood at 5%.
As to `Cc1cncc(CCn2c3c(c4cc(C)ccc42)C2CCC(C3)N2C)c1` (stereo not drawn) [Compound 90], the inhibition at 1 µM came out at 26%.
For `Cc1ccc2c(c1)c1c(n2CC(O)c2ccc(C)nc2)CC2CCC1N2C` (stereo not drawn) [Compound 91], the inhibition at 1 µM turned out to be 29%.
Consider `Cc1ccc(CCn2c3c(c4ccccc42)C2CCC(C3)N2C)cn1` (stereo not drawn) [Compound 92], for which the inhibition at 1 µM was determined as 15%.
Regarding `Cc1ccc2c(c1)c1c(n2CC(=O)N2CCCCC2)CC2CCC1N2C` (stereo not drawn) [Compound 93], the inhibition at 1 µM was 4%.
The same measure, in the same setting: with `CN1[C@@H]2CC[C@H]1c1c(n(CCc3ccc(F)cc3)c3ccc(F)cc13)C2` [Compound 94, (+)-(7S,10R)-2-Fluoro-5-(4-fluorophenethyl)-11-methyl-5,6,7,8,9,10-hexahydro-7,10-iminocyclohept[b]indole] the figure was 56%; with `CN1[C@H]2CC[C@@H]1c1c(n(CCc3ccc(F)cc3)c3ccc(F)cc13)C2` [Compound 95, (−)-(7R,10S)-2-Fluoro-5-(4-fluorophenethyl)-11-methyl-5,6,7,8,9,10-hexahydro-7,10-iminocyclohept[b]indole], 65%.
For the compound `CN1[C@@H]2CC[C@H]1c1c(n(CCc3ccc(C(F)(F)F)nc3)c3ccccc13)C2` [Compound 97], the inhibition at 1 µM was found to be 26%.
On to `CN1[C@@H]2CC[C@H]1c1c(n(CC(C)(O)c3ccc(F)cc3)c3ccccc13)C2` (stereo partly drawn) [Compound 99], for which the inhibition at 1 µM was found to be 25%.
On the same count and under the same terms, the value for `CN1[C@@H]2CC[C@H]1c1c(n(CC(=O)N3CCCCC3)c3ccccc13)C2` [Compound 101] was 18%.
With `Cc1ccc(CCn2c3c(c4ccccc42)[C@@H]2CC[C@H](C3)N2C)cn1` [Compound 102], the inhibition at 1 µM turned out to be 4%.
Still for that read-out and setting: the value for `Cc1ccc2c(c1)c1c(n2CCC#N)CC2CCC1N2C` (stereo not drawn) [Compound 103] was 57%.
Turning to `CN1C2CCC1c1c(n(CCC#N)c3ccc(Cl)cc13)C2` (stereo not drawn) [Compound 107], the inhibition at 1 µM was 42%.
In the case of `CN1C2CCC1c1c(n(CC(=O)c3ccccc3)c3ccc(Cl)cc13)C2` (stereo not drawn) [Compound 110], the inhibition at 1 µM was 48%.
As to `CN1C2CCC1c1c(n(CC(=O)c3ccc(Cl)cc3)c3ccc(Cl)cc13)C2` (stereo not drawn) [Compound 111], the inhibition at 1 µM is 89%.
On the same count and under the same terms, with `Cc1ccc2c(c1)c1c(n2CCc2nc(-c3ccccc3)cs2)CC2CCC1N2C` (stereo not drawn) [Compound 114] the figure was 46%; with `C/C(=C\n1c2c(c3cc(C)ccc31)C1CCC(C2)N1C)c1ccc(Cl)cc1` (stereo not drawn) [Compound 116], 83%.
With `C/C(=C/n1c2c(c3ccccc31)[C@@H]1CC[C@H](C2)N1C)c1ccc(F)cc1` [Compound 121], the inhibition at 1 µM is 55%.
For the compound `C/C(=C\n1c2c(c3cc(Cl)ccc31)C1CCC(C2)N1C)c1ccc(F)cc1` (stereo not drawn) [Compound 123], the inhibition at 1 µM is 95%.
Turning to `C/C(=C\n1c2c(c3cc(C)ccc31)C1CCC(C2)N1C)c1ccc(F)cc1` (stereo not drawn) [Compound 124], the inhibition at 1 µM turned out to be 91%.
On the same count and under the same terms, with `C/C(=C\n1c2c(c3cc(Cl)ccc31)C1CCC(C2)N1C)c1ccc(Cl)cc1` (stereo not drawn) [Compound 125] the figure was 92%.
Same read-out and setting: the value for `COc1ccc(/C(C)=C/n2c3c(c4cc(Cl)ccc42)C2CCC(C3)N2C)cc1F` (stereo not drawn) [Compound 136] was 91%; that for `CN1C2CCC1c1c(n(C#Cc3ccc(F)cc3)c3ccc(Cl)cc13)C2` (stereo not drawn) [Compound 138] was 95%.

A further experiment deals with T2, human recombinant serotonin (5-Hydroxytryptamine) 5-HT7 receptor (Homo sapiens, UniProt P34969).
T2 construct: expressed in transfected cells; host or cells: CHO cells
T2 sequence (P34969 whole entry): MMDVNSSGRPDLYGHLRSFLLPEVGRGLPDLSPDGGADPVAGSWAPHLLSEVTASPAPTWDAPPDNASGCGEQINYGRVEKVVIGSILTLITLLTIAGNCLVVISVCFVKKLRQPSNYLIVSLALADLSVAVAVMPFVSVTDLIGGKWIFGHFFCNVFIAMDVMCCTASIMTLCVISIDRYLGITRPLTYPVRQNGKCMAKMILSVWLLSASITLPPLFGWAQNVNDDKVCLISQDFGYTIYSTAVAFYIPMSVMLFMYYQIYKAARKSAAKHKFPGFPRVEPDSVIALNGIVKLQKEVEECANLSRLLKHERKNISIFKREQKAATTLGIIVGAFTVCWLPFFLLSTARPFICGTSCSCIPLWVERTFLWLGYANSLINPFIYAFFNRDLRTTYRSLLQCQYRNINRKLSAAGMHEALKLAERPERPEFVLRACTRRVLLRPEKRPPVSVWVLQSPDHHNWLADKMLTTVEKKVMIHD
The experiment can be described thus: Serotonin 5-HT7 radioligand binding ([3H]LSD). The settings on record: read-out: Serotonin 5-HT7, inhibition of ligand binding (1 μM). On the procedure:
To evaluate in radioligand binding assays the activity of compounds of the invention, human recombinant serotonin (5-Hydroxytryptamine) 5-HT7 receptor expressed in Chinese hamster ovary (CHO) cells (Roth, B. L. et al., J. Pharmacol. Exp. Ther. 268:1403, 1994; Shen, Y. et al., J. Biol. Chem. 268:18200, 1993) in a modified Tris-HCl buffer (50 mM Tris-HCl, pH 7.4, 10 mM MgCl2, 0.5 mM EDTA) was used. Compounds of invention were incubated with 5.5 nM [^3H] Lysergic acid diethylamide (LSD) for 2 hours at 25° C. Non-specific binding was estimated in the presence of 10 μM Serotonin (5-HT). Receptor proteins were filtered and washed, the filters were then counted to determine [^3H]LSD specifically bound. Compounds were screened at 1 μM or lower, using 1% DMSO as vehicle. Biochemical assay results are presented as the percent inhibition of specific binding in Table 4.
`CN1C2CCC1c1c(n(CC(=O)c3ccc(Cl)cc3)c3ccc(Cl)cc13)C2` (stereo not drawn) [Compound 111]: the inhibition at 1 µM is 78%.
For the compound `C/C(=C\n1c2c(c3cc(C)ccc31)C1CCC(C2)N1C)c1ccc(Cl)cc1` (stereo not drawn) [Compound 116], the inhibition at 1 µM stood at 92%.
For `C/C(=C\n1c2c(c3cc(Cl)ccc31)C1CCC(C2)N1C)c1ccc(F)cc1` (stereo not drawn) [Compound 123], the inhibition at 1 µM was found to be 97%.
As to `C/C(=C\n1c2c(c3cc(C)ccc31)C1CCC(C2)N1C)c1ccc(F)cc1` (stereo not drawn) [Compound 124], the inhibition at 1 µM is 91%.
For `C/C(=C\n1c2c(c3cc(Cl)ccc31)C1CCC(C2)N1C)c1ccc(Cl)cc1` (stereo not drawn) [Compound 125], the inhibition at 1 µM stood at 95%.
Regarding `COc1ccc(/C(C)=C/n2c3c(c4cc(Cl)ccc42)C2CCC(C3)N2C)cc1F` (stereo not drawn) [Compound 136], the inhibition at 1 µM amounted to 79%.
Still for that read-out and setting: with `CN1C2CCC1c1c(n(C#Cc3ccc(F)cc3)c3ccc(Cl)cc13)C2` (stereo not drawn) [Compound 138] the figure was 91%.
